In patent publication EP0345251B1 (priority 1986, dated 1988):

Assays:
[1] = test system: Lewis lung carcinoma (3LL); experiment: Lewis lung carcinoma (3LL): primary tumour and lung secondaries; assay type: in vivo, C₅₇Bl mice
Experimental: Antitumour effects. Male Swiss Schneider mice of 27g body weight were used for the sarcoma S180 experiments: female C₅₇Bl mice of 20g body weight were used for the B16 melanoma experiments; male BDF₁ mice of 30g body weight were used for the L1210 leukaemia experiments; and C₅₇Bl mice of 20g body weight were used for the Lewis lung experiments.
Lewis lung (3LL). This tumour was prepared for inoculation in a manner identical to that used for the S180 sarcoma.
This tumour metastasizes to the lungs when implanted into the flanks of mice. […]

[2] = test system: leukaemia L1210; experiment: Antitumour activity against leukaemia L1210 (survival); assay type: in vivo, BDF₁ mice; design: MST: unit not given here; conditions: for MST: median survival time; for T/C: treated/control; for SURVIVAL (mean days) / SURVIVORS No. at 60 d: in combination CRON 200 mg/kg, CR same as MTZ
Experimental: Antitumour effects. Male Swiss Schneider mice of 27g body weight were used for the sarcoma S180 experiments: female C₅₇Bl mice of 20g body weight were used for the B16 melanoma experiments; […]; and C₅₇Bl mice of 20g body weight were used for the Lewis lung experiments.
L1210. Spleens were removed from animals 7 days after inoculation of L1210 cells and these spleens were finely minced with 1:100 isotonic saline. 0.1 ml of this spleen and leukaemia L1210 cell suspension was then injected subcutaneously into the flank of each BDF₁.

[3] = Mitozantrone toxicity in mice bearing S180, with and without Cronassial; assay type: in vivo, Male Swiss Schneider mice; conditions: chronic, host SN (+S180), MTZ 5 mg/kg ip days 3.4.5
Experimental: (§1) Toxicity acute and chronic. Male Swiss Schneider mice with a body weight of 25-30g were used for these experiments. Mice were usually kept in groups of not more than 8 in standard cages. Food and water were supplied ad libidum. The animals were kept in experimental rooms under closely controlled conditions. They were weighed daily. For acute vincristine toxicity in chicks, 48 hour old SPF chicks were used.
Sarcoma S180. This tumour has been transplanted in the same strain of mouse for more than 10 years.
Transplantation was done by subcutaneous inoculation of 0.1 ml of a tumour mash made by finely mincing viable tumour tissue and passing it repeatedly through a 26 gauge needle into a sterile Petri dish. 0.1 ml of penicillin (20,000 m/ml) and streptomycin (20,000 m/ml) were added to the mash, as well as neomycin (5 mgs).
(§2) Mitozantrone was made up in an appropriate manner. It was given in a volume of 0.2ml when the injections were given intraperitoneally but when given by another route, the volumes given were indicated in the appropriate Table.

[4] = Mitozantrone toxicity in mice, with and without Cronassial; assay type: in vivo, Male Swiss Schneider mice; conditions: host SN
Experimental: as §1
Cronassial®. A solution of this substance, which is a mixture of four gangliosides, was prepared by the addition of a volume of sterile distilled water sufficient to give a concentration of 200 mg/kg in a volume of 0.2 ml. This dose was given to mice of approximately 20g.
as §2

[5] = Blood counts (Coulter counter) after mitozantrone, with and without Cronassial; assay type: in vivo; conditions: blood by cardiac puncture
[6] = chronic, first pair of Table 4: MTZ 5 ip days 1,2, in combination CRON 200 same time as MTZ
[7] = chronic, second series of Table 4: MTZ 5 ip days 1,2, in combination CRON 200 same time as MTZ
[8] = M, MTZ 4 mg/kg iv x 3, days 1.2.3, in combination CRON 200 mg/kg, mixed as one injection
[9] = L1210, host BDF1, MTZ 5 mg/kg ip days 0.1.2
[10] = L1210, host BDF1, MTZ 5 mg/kg ip days 1.2.3

COc1cccc2c1C(=O)c1c(O)c3c(c(O)c1C2=O)C[C@@](O)(C(=O)CO)C[C@@H]3O[C@H]1C[C@H](N)[C@H](O)[C@H](C)O1 [ADR, adriamycin]
COMMENTS (survival) ([1]; C57Bl mice, 3LL s.c., 8/group, ADR 3 mg/kg i.p. days 6-10, in combination CRN 200 mg/kg): All ADR alone animals dead by d17 | DEATHS L1210 ([2]; Table 11: BDF ♀ 20g, L1210 s.c., 8/group, i.p. days 1, 2, 3, ADR 4.0 mg/kg, in combination CRON 200): 8 | DEATHS L1210 ([2]; Table 11: BDF ♀ 20g, L1210 s.c., 8/group, i.p. days 1, 2, 3, ADR 6.0 mg/kg, in combination CRON 200): 8 | DEATHS L1210 ([2]; Table 11: BDF ♀ 20g, L1210 s.c., 8/group, i.p. days 1, 2, 3, ADR 8.0 mg/kg, in combination CRON 200): 8 | DEATHS L1210 ([2]; Table 12: BDF ♂ 35g (6/12 old), L1210 s.c., 8/group, i.p. days 1, 2, 3, ADR 6.0 mg/kg): 1 | DEATHS TOXICITY ([2]; Table 12: BDF ♂ 35g (6/12 old), L1210 s.c., 8/group, i.p. days 1, 2, 3, ADR 6.0 mg/kg, in combination CRON 200): 7 | DEATHS TOXICITY ([2]; Table 12: BDF ♂ 35g (6/12 old), L1210 s.c., 8/group, i.p. days 1, 2, 3, ADR 8.0 mg/kg, in combination CRON 200): 8 | DEATHS TOXICITY ([2]; Table 12: BDF ♂ 35g (6/12 old), L1210 s.c., 8/group, i.p. days 1, 2, 3, ADR 10.0 mg/kg, in combination CRON (dose not given)): 8 | COMMENTS ([2]; Table 12: BDF ♂ 35g (6/12 old), L1210 s.c., i.p. days 1, 2, 3, ADR 8.0 mg/kg): Toxic | COMMENTS ([2]; Table 12: BDF ♂ 35g (6/12 old), L1210 s.c., i.p. days 1, 2, 3, ADR 10.0 mg/kg, bracket spans ADR and ADR/CRON lines): ) Toxic | DEATHS TOXICITY ([2]; Table 13: BDF ♀ 25g (2-3/12 old), L1210 s.c., 7/group, i.p. days 1, 2, 3, ADR 10.0 mg/kg, in combination CRON 200): 7 | DEATHS TOXICITY ([2]; Table 13: BDF ♀ 25g (2-3/12 old), L1210 s.c., 7/group, i.p. days 1, 2, 3, ADR 12.5 mg/kg, in combination CRON 200): 7 | DEATHS TOXICITY ([2]; Table 13: BDF ♀ 25g (2-3/12 old), L1210 s.c., 7/group, i.p. days 1, 2, 3, ADR 15.0 mg/kg, in combination CRON (dose not given)): 7 | COMMENTS ([2]; Table 13: BDF ♀ 25g (2-3/12 old), L1210 s.c., i.p. days 1, 2, 3, ADR 12.5 mg/kg, bracket spans ADR and ADR/CRON lines): } Toxic | COMMENTS ([2]; Table 13: BDF ♀ 25g (2-3/12 old), L1210 s.c., i.p. days 1, 2, 3, ADR 15.0 mg/kg, bracket spans ADR and ADR/CRON lines): } Toxic | MST ([2]; Table 11: BDF ♀ 20g, L1210 s.c., i.p. days 1, 2, 3, ADR 4.0 mg/kg, in combination CRON 200, control 6.8): 10.8 | MST ([2]; Table 11: BDF ♀ 20g, L1210 s.c., i.p. days 1, 2, 3, ADR 6.0 mg/kg, in combination CRON 200, control 6.8): 9.7 | MST ([2]; Table 11: BDF ♀ 20g, L1210 s.c., i.p. days 1, 2, 3, ADR 8.0 mg/kg, in combination CRON 200, control 6.8): 11.8 | MST ([2]; Table 12: BDF ♂ 35g (6/12 old), L1210 s.c., i.p. days 1, 2, 3, ADR 6.0 mg/kg, in combination CRON 200, control 7.0): 9.38 | MST ([2]; Table 12: BDF ♂ 35g (6/12 old), L1210 s.c., i.p. days 1, 2, 3, ADR 8.0 mg/kg, in combination CRON 200, control 7.0): 5.8 | MST ([2]; Table 12: BDF ♂ 35g (6/12 old), L1210 s.c., i.p. days 1, 2, 3, ADR 10.0 mg/kg, in combination CRON (dose not given), control 7.0): 5.5 | MST ([2]; Table 13: BDF ♀ 25g (2-3/12 old), L1210 s.c., i.p. days 1, 2, 3, ADR 10.0 mg/kg, in combination CRON 200, control 10.6): 10.3 | MST ([2]; Table 13: BDF ♀ 25g (2-3/12 old), L1210 s.c., i.p. days 1, 2, 3, ADR 12.5 mg/kg, in combination CRON 200, control 10.6): 5.4 | MST ([2]; Table 13: BDF ♀ 25g (2-3/12 old), L1210 s.c., i.p. days 1, 2, 3, ADR 15.0 mg/kg, in combination CRON (dose not given), control 10.6): 5.1 | T/C ([2]; Table 11: BDF ♀ 20g, L1210 s.c., i.p. days 1, 2, 3, ADR 4.0 mg/kg, in combination CRON 200): 159 | T/C ([2]; Table 11: BDF ♀ 20g, L1210 s.c., i.p. days 1, 2, 3, ADR 6.0 mg/kg, in combination CRON 200): 135 | T/C ([2]; Table 11: BDF ♀ 20g, L1210 s.c., i.p. days 1, 2, 3, ADR 8.0 mg/kg, in combination CRON 200): 174 | T/C ([2]; Table 12: BDF ♂ 35g (6/12 old), L1210 s.c., i.p. days 1, 2, 3, ADR 6.0 mg/kg, in combination CRON 200): 134 | T/C ([2]; Table 12: BDF ♂ 35g (6/12 old), L1210 s.c., i.p. days 1, 2, 3, ADR 8.0 mg/kg, in combination CRON 200): 83 | T/C ([2]; Table 12: BDF ♂ 35g (6/12 old), L1210 s.c., i.p. days 1, 2, 3, ADR 10.0 mg/kg, in combination CRON (dose not given)): 79 | T/C ([2]; Table 13: BDF ♀ 25g (2-3/12 old), L1210 s.c., i.p. days 1, 2, 3, ADR 10.0 mg/kg, in combination CRON 200): 97 | T/C ([2]; Table 13: BDF ♀ 25g (2-3/12 old), L1210 s.c., i.p. days 1, 2, 3, ADR 12.5 mg/kg, in combination CRON 200): 51 | T/C ([2]; Table 13: BDF ♀ 25g (2-3/12 old), L1210 s.c., i.p. days 1, 2, 3, ADR 15.0 mg/kg, in combination CRON (dose not given)): 48

CO[C@@]12[C@H](COC(N)=O)C3=C(C(=O)C(C)=C(N)C3=O)N1C[C@@H]1N[C@@H]12 [MMC, Mitomycin C]
SURVIVORS 14d ([2]; Table 15: BDF mice, L1210 s.c., 8/group, i.p. days 1, 2, 3, MMC 5 mg/kg, in combination CRN 200 mg/kg): 1 | MST ([2]; Table 15: BDF mice, L1210 s.c., i.p. days 1, 2, 3, MMC 5 mg/kg, in combination CRN 200 mg/kg, control 7.1): 7.0

O=C1c2c(O)ccc(O)c2C(=O)c2c(NCCNCCO)ccc(NCCNCCO)c21 [MTZ, mitozantrone]
SURVIVORS No.at 30 d [3]: 0/8 | SURVIVAL (mean days) ([3]; in combination CRON 200 mg/kg, CR same time MTZ): 8.8 days | SURVIVAL (mean days) [4, 6]: 9 days | SURVIVORS No.at 30 d [4, 6]: 0/6 | SURVIVAL (mean days) [4, 7]: 11 days | SURVIVORS No.at 30 d [4, 7]: 0/6 | SURVIVAL (mean days) [4, 8]: 7.8 days | SURVIVORS d.30 [4, 8]: 0/5 | mice died by day 14 ([1]; 3LL in flank, mitozantrone 3.0 mg/kg for 5 days, day 5 to 9 after implantation): 7/8 | SURVIVAL (mean days) [2, 9]: 6.14 days | SURVIVORS No. at 60 d [2, 9]: 1/8 | SURVIVAL (mean days) [2, 10]: 17.1 days | SURVIVORS No. at 60 d [2, 10]: 2/8 | SURVIVORS No. at 60 d ([2]; L1210, host BDF1, MTZ 5 mg/kg ip days 3.4.5, CMC-controls 0/8): 0/8 | SURVIVAL (mean days) ([2]; L1210, host BDF1, MTZ 5 mg/kg ip days 3.4.5, CMC-controls 8.7): 25.2 days | SURVIVORS No. at 60 d ([2]; L1210, host DBA, MTZ 5 mg/kg ip days 2.3.4, CMC-controls 0/6): 0/6 | SURVIVAL (mean days) ([2]; L1210, host DBA, MTZ 5 mg/kg ip days 2.3.4, CMC-controls 7.2): 16.8 days | MEAN VALUES OF INDIVIDUAL ANIMALS RBC x 10¹²/l ([5]; Day 5., controls 7.9): 7.3 x 10¹²/l | MEAN VALUES OF INDIVIDUAL ANIMALS WBC X 10⁹/l ([5]; Day 5, controls 9.3): 3.5 X 10⁹/l | MEAN VALUES OF INDIVIDUAL ANIMALS PLATELETS x 10⁹/l ([5]; Day 5, controls 632): 631 x 10⁹/l | MEAN VALUES OF INDIVIDUAL ANIMALS PLATELETS x 10⁹/l ([5]; Day 7): 845 x 10⁹/l | MEAN VALUES OF INDIVIDUAL ANIMALS RBC x 10¹²/l ([5]; Day 7): 7.0 x 10¹²/l | MEAN VALUES OF INDIVIDUAL ANIMALS WBC X 10⁹/l ([5]; Day 7): 2.2 X 10⁹/l | MEAN VALUES OF INDIVIDUAL ANIMALS WBC X 10⁹/l ([5]; Day 8, controls 5.2): 3.2 X 10⁹/l | MEAN VALUES OF INDIVIDUAL ANIMALS RBC x 10¹²/l ([5]; Day 8, controls 7.2): 7.1 x 10¹²/l | MEAN VALUES OF INDIVIDUAL ANIMALS PLATELETS x 10⁹/l ([5]; Day 8, controls 649): 1058 x 10⁹/l
